# According to US20120270900A1, “NOVEL METHOD OF TREATMENT” (Topo Target A/S, priority 2009, published 2012):
# Key:
# [1] = system: panel of cell lines of different origin; assay: Clonogenic assay, continuous APO866 treatment, panel of cell lines; format: cell-based
# Procedure: (§1) Clonogenic assay: Cells were incubated with APO866 at different concentrations with or without 100 μM nicotinic acid and seeded out on semi-solid agar matrix with sheep red blood cells and growth medium. Following a 3-week incubation period, the colonies were counted and % survival relative to control (untreated) cells was calculated. IC50 values were calculated on basis of survival at different concentrations of APO866.
# Supplement of nicotinic acid to the growth medium can protect against the cytotoxic effects of inhibitors of nicotinamide phosphoribosyltransferase (NAMPRT), including APO866, by synthesizing nicotine adenine dinucleotide (NAD) by an alternative pathway. A cancer cell line, HEPG2, has been shown not to be able to utilize nicotinic acid for NAD synthesis (Cancer Res. 2003 Nov. 1; 63(21):7436-42). We investigated the protective effect of nicotinic acid against APO866 induced cell death in a panel of cell lines of different origin. […] We used continuous treatment with APO866 in a clonogenic assay. Two cell lines, A2780 and NYH were not protected against APO866 when incubated in a medium containing 100 μM nicotinic acid (Table 1). ML-2, HCT-116 and A431 cells display an increase of IC50 values of more than 40-90 fold in nicotinic acid containing medium compared to standard medium. […]
# [2] = Maximally tolerated dose of APO866 in mice; details: mouse, in vivo, intraperitoneal; twice a day; Balb/c nude mice; data not shown
# [3] = system: leukemic cells; details: WO 1999/053920; cited from earlier work
# [4] = system: ML-2 xenografts; assay: Subcutaneous ML-2 xenograft study
# Procedure: (§2) FIG. 5 illustrates the cumulative survival of mice with subcutaneous ML-2 xenografts: Time used for each individual mouse's tumour to reach a size of 800 mm3. The mice were treated i.p. with doses of 15 or 50 mg/kg APO866×2/day in two weekly 4-day cycles combined with vehicle p.o. or 50 mg/kg nicotinic acid (NA). Legend on the figure: The p-values of log-rank analysis comparing the individual groups are shown on the figure.
# (§3) Mouse studies: In toxicity and xenograft studies NMRI mice and nude mice, respectively, were treated once daily p.o. with 0.5% HPMC in water or nicotinic acid in the same vehicle combined with two daily injections of APO866 in PBS/saline with 3% HPβCD. The mice were treated in two weekly four-day cycles.
# (§4) In xenograft studies, 10^7 cancer cells were injected s.c. in a mixture of PBS/matrigel in nude athymic mice.
# (§5) We investigated the in vivo rescue effects of nicotinic acid on nude mice carrying xenograft tumours of A2780 and ML-2 cells. APO866 was given twice daily in weekly four-day cycles for two weeks starting when tumours had reached a size of 100 mm^3.
# [5] = system: primary intestinal cells; details: cited from earlier work
# [6] = target: T1, NAPRT (Homo sapiens, UniProt Q6XQN6); details: cited from earlier work
# T1 sequence (Q6XQN6 1-538): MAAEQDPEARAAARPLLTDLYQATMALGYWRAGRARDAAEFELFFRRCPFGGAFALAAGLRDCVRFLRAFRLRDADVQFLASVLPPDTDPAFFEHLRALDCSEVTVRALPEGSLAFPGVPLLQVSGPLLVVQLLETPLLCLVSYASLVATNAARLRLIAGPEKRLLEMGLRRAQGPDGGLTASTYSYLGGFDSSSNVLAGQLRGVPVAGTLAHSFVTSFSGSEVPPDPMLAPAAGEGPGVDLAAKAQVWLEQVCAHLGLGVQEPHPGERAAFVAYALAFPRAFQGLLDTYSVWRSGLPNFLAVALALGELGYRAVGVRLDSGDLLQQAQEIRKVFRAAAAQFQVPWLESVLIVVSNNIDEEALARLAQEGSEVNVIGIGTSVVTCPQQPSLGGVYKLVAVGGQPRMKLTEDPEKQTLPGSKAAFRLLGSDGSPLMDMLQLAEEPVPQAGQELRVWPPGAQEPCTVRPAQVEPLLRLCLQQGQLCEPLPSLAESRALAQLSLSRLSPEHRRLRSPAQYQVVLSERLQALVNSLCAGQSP
# [7] = system: primary lymphocytes; details: cited from earlier work
# [8] = system: PC-3 cells; assay: LD50 of APO866 in PC-3 cells with and without nicotinic acid; format: cell-based
# [9] = system: HCT-116; assay: Clonogenic assay, APO866 with or without 100 μM nicotinic acid; format: cell-based
# Procedure: as §1
# (§6) Supplement of nicotinic acid to the growth medium can protect against the cytotoxic effects of inhibitors of nicotinamide phosphoribosyltransferase (NAMPRT), including APO866, by synthesizing nicotine adenine dinucleotide (NAD) by an alternative pathway. A cancer cell line, HEPG2, has been shown not to be able to utilize nicotinic acid for NAD synthesis (Cancer Res. 2003 Nov. 1; 63(21):7436-42). We investigated the protective effect of nicotinic acid against APO866 induced cell death in a panel of cell lines of different origin. […] We used continuous treatment with APO866 in a clonogenic assay. Two cell lines, A2780 and NYH were not protected against APO866 when incubated in a medium containing 100 μM nicotinic acid (Table 1). ML-2, HCT-116 and A431 cells display an increase of IC50 values of more than 40-90 fold in nicotinic acid containing medium compared to standard medium. Addition of 100 μM nicotinic acid to the medium had in itself no effect on the survival of the cells (data not shown)
# [10] = system: ML-2; assay: as above; format: cell-based
# Procedure: as §1, §6
# [11] = system: NYH; assay: as above; format: cell-based
# Procedure: as §1, §6
# [12] = system: A2780; assay: as above; format: cell-based
# Procedure: as §1, §6
# [13] = system: A431; assay: as above; format: cell-based
# Procedure: as §1, §6
# [14] = system: A2780 xenografts; assay: Subcutaneous A2780 xenograft study
# Procedure: as §2, with “FIG. 4” for “FIG. 5”, “subcutaneous A2780” for “subcutaneous ML-2”
# as §3, §4, §5
# [15] = Survival of mice under high dose APO866 with or without oral nicotinic acid; format: in vivo
# Procedure: FIG. 2 illustrates the cumulative survival of mice in response to high dose APO866 treatment. Treatment is 60 mg APO866 twice/day for 4 days. NA=nicotinic acid.
# [16] = system: ovarian cancer cell line A2780; assay: CellTiterGlo luminescent cell viability assay; format: cell-based; details: 3 days treatment, 1 mM nicotinic acid
# Procedure: FIG. 7 illustrates cell viability in the ovarian cancer cell line A2780 measured by CellTiterGlo® after 3 days of CHS-828 treatment with and without 1 mM nicotinic acid added to the medium.
# (§7) CellTiterGlo® luminescent cell viability assay: Cells were plated in opaque 96-well plates (5,000 cells/well) 24 hours before use and then incubated with drug for 72 hours at the indicated concentrations with or without nicotinic acid (Invitrogen) added to the media. The CellTiterGlo® assay (Promega) was performed according to the manufacturer's instructions and bioluminescence was measured. Analysis and determination of IC50 values were performed by Prizm.
# [17] = system: colon cancer cell line HCT116; assay: CellTiterGlo luminescent cell viability assay; format: cell-based; details: 3 days treatment, varying concentrations of nicotinic acid
# Procedure: FIG. 8 illustrates cell viability in the colon cancer cell line HCT116 measured by CellTiterGlo® after 3 days of compound 1050 treatment with and without varying concentrations of nicotinic acid added to the medium.
# as §7
# [18] = system: small cell lung cancer cell line NYH; assay: CellTiterGlo luminescent cell viability assay; format: cell-based; details: 3 days treatment, 1 mM nicotinic acid
# Procedure: FIG. 9 illustrates cell viability in the small cell lung cancer cell line NYH measured by CellTiterGlo® after 3 days of compound 1050 treatment with and without 1 mM nicotinic acid added to the medium.
# as §7
# [19] = system: myeloma; details: unless nicotinic acid is given 24 hours after the NAMPRTi; Beauparlant et al.; cited from earlier work
# [20] = APO866 40 mg/kg i.p. x2/day for 4 days, nicotinic acid 20 mg/kg x1/day p.o. for five days; last treatment day
# [21] = increase of IC50 to APO866 with 100 μM nicotinic acid in medium
# [22] = 60 mg/kg APO866 twice daily on four consecutive days, vehicle p.o. (no nicotinic acid)
structure (smiles),measurement,setting,value
O=C(/C=C/c1cccnc1)NCCCCC1CCN(C(=O)c2ccccc2)CC1 [APO866],IC50,"[1]; range over the cell lines of the panel, continuous treatment",1 to 13 nM
same,MTD,[2],15 mg/kg
same,effect of vitamin PP compounds on cytotoxicity,[3],neutralise the cytotoxicity
same,survival compared with controls,"[4]; 15 mg/kg APO866 and nicotinic acid, p=0.14",not significantly different from controls
same,tumour growth compared with untreated controls,"[4]; 50 mg/kg APO866 and nicotinic acid, p=0.002",reduced tumour growth
same,effect on tumour size compared with 15 mg/kg APO866 and nicotinic acid,"[4]; 50 mg/kg APO866 combined with nicotinic acid, p=0.97",does not improve the effect on tumour size in a significant way
same,effect on tumours,[4]; APO866 only,complete elimination of the tumours before day 10
same,body weight change between the groups,[4]; data not shown,No overall differences in body weight change
same,anti-proliferative effect with nicotinic acid co-administered,[4]; same APO866 dose with nicotinic acid,partially negated
same,effect of vitamin PP compounds on cytotoxic effect,[5],neutralise the cytotoxic effect
same,inhibition of the enzyme NAPRT,[6],not inhibited
same,effect of vitamin PP compounds on cytotoxic effect,[7],neutralise the cytotoxic effect
same,LD50,[8]; with nicotinic acid (100 μM) present,5.5 ± 1.4 nM
same,LD50,[8]; without nicotinic acid,4.8 ± 3.0 nM
same,increase of IC50 values in nicotinic acid containing medium compared to standard medium,[9]; 100 μM nicotinic acid,40-90 fold
same,NA rescue effect,[9]; [21],+ (Rescue effect defined as >39-fold increase of IC50 to APO866 treatment)
same,increase of IC50 values in nicotinic acid containing medium compared to standard medium,[10]; 100 μM nicotinic acid,40-90 fold
same,NA rescue effect,[10]; [21],+ (Rescue effect defined as >39-fold increase of IC50 to APO866 treatment)
same,protection against APO866 in medium containing nicotinic acid,[11]; 100 μM nicotinic acid,not protected
same,NA rescue effect,[11]; [21],− (No rescue effect defined as <2-fold increase in IC50)
same,protection against APO866 in medium containing nicotinic acid,[12]; 100 μM nicotinic acid,not protected
same,NA rescue effect,[12]; [21],− (No rescue effect defined as <2-fold increase in IC50)
same,increase of IC50 values in nicotinic acid containing medium compared to standard medium,[13]; 100 μM nicotinic acid,40-90 fold
same,NA rescue effect,[13]; [21],+ (Rescue effect defined as >39-fold increase of IC50 to APO866 treatment)
same,"increase of lifespan (% ILS, until tumour size of 800 mm3) compared to the control group","[14]; 15 mg/kg APO866 i.p. twice daily, weekly four-day cycles for two weeks",50%
same,anti-proliferative effect with nicotinic acid co-treatment,[14]; 15 mg/kg APO866 with 50 mg/kg nicotinic acid,negates the anti-proliferative effect
same,increase in % ILS,[14]; 50 mg/kg APO866 i.p. and 50 mg/kg nicotinic acid p.o.,180%
same,body weight between the groups,"[14]; during the study, data not shown",did not vary significantly
same,survival of mice,"[15]; 60 mg/kg APO866 twice daily on four consecutive days combined with 50 mg/kg/day nicotinic acid p.o., until day 26",all the mice of the group treated with nicotinic acid survived
same,death of mice,[15]; [22],the majority of the control mice died on day 3 and 4
same,mice that survive the initial toxicity and recover,[15]; [22],1 of 7
N#CN=C(NCCCCCCOc1ccc(Cl)cc1)Nc1ccncc1 [CHS828],rescue by nicotinic acid from cytotoxicity,[16],minimally rescued
N#C/N=C(\NCCCCCCC(=O)N(Cc1ccccc1)OC1CCCCC1)Nc1ccncc1 [Compound 1050],rescue by nicotinic acid from treatment,[17],can rescue
same,rescue by nicotinic acid from treatment,[18],not similarly protected
COCCOCCOCCOCCOC(=O)OC[n+]1ccc(N/C(=N/C#N)NCCCCCCOc2ccc(Cl)cc2)cc1.[Cl-] [GMX1777],effect of nicotinic acid on antitumour effect,[19],abrogates the antitumour effect
O=C(O)c1cccnc1 [nicotinic acid],effect of nicotinic acid in itself on the survival of the cells,"[1]; 100 μM nicotinic acid added to the medium, data not shown",no effect
same,"platelet count upon APO866 treatment, nicotinic acid group compared to control",[20],significantly improved
same,protection against APO866-induced death,[15]; nicotinic acid administered on the same days as APO866,protects against death even at four times the normal MTD
